US9045524B2, “Selective caspase inhibitors and uses thereof” (NOVAGENESIS FOUNDATION, priority 2009, dated 2015)
Read-outs that look alike come from different tables or passages of the source.

Assays:
Caspase-5 = Caspase-5 (Homo sapiens (Human), UniProt P51878); assay: Caspase-5 Inhibitor Drug Screening Kit, fluorometric (AFC liberation); type: biochemical; conditions: for IC50: 30-minute incubation at 37° C., approximations of the average values, read-out: Caspase enzymatic activity, IC50 (uM) Caspase 5; for inhibitory activity for caspase-5: at the tested dose-range (1 to 3333 nM)
Description: (§1) The level of inhibition of caspase-1, -3, -5, -7, -9 activity was determined by comparison of the relative fluorescence intensity in samples with or without the compound.

Caspase-3 = Caspase-3 (Homo sapiens (Human), UniProt P42574); assay: Caspase-3 Inhibitor Drug Screening Kit, fluorometric (AFC liberation); type: biochemical
Description: as §1

Caspase-9 = Caspase-9 (Homo sapiens (Human), UniProt P55211); assay: Caspase-9 Inhibitor Drug Screening Kit, fluorometric (AFC liberation); type: biochemical; conditions: for IC50: 30-minute incubation at 37° C., approximations of the average values, read-out: Caspase enzymatic activity, IC50 (uM) Caspase 9; for inhibitory activity for caspase-9: at the tested dose-range (1 to 3333 nM)
Description: as §1

Caspase-1 = Caspase-1 (Homo sapiens (Human), UniProt P29466); assay: Caspase-1 Inhibitor Drug Screening Kit, fluorometric (AFC liberation); type: biochemical; conditions: for IC50: 30-minute incubation at 37° C., approximations of the average values, read-out: Caspase enzymatic activity, IC50 (uM) Caspase 1; for inhibitory activity for caspase-1: at the tested dose-range (1 to 3333 nM)
Description: as §1

Glo3/7 = Glo3/7 assay; type: biochemical
Caspase-7 = Caspase-7 (Homo sapiens (Human), UniProt P55210); assay: Caspase-7 Inhibitor Drug Screening Kit, fluorometric (AFC liberation); type: biochemical; conditions: 30-minute incubation at 37° C.; approximations of the average values; read-out: Caspase enzymatic activity, IC50 (uM) Caspase 7
Description: as §1

[1] = test system: proteolytic cleavage of PARP (poly ADP-ribose polymerase) in Hela cells; assay: Inhibition of staurosporine-induced PARP cleavage in live Hela cells; type: cell-based; conditions: Hela cells, staurosporine
Description: To test the efficacy of caspase-3 inhibitors at the cellular level, the ability of selected compounds to inhibit the proteolytic cleavage of PARP (poly ADP-ribose polymerase) was evaluated in live Hela cells.
Briefly, in this assay Hela cells are seeded in 96 well plates and incubated for 4 hours with staurosporine, a well characterized inducer of apoptosis, alone or together with different concentrations of compound (50, 25, 10 and 3 uM). After formaldehyde-based fixation, the cells are stained with a fluorescein-labeled anti-cleaved PARP antibody (Cell signaling, Cat#: 9547) and counterstained with Hoechst33342 (Invitrogen, Cat#: H3570) to mark all nuclei. Fluorescence images are taken on a Cellomics™ microscope system (Thermo Scientific, Pittsburgh, USA) with the Hoechst stain in the blue channel and the cleaved PARP antibody stain in the green channel. The percentage of cleaved PARP positive cells is determined by calculating the ratio between nuclei with a cleaved PARP antibody staining above a certain threshold and all (Hoechst positive) nuclei. The efficacy of caspase-3 inhibition is determined by calculating the ratio between cleaved PARP positive cells after staurosporine incubation together with compounds and staurosporine incubation without compounds.

EAE in C57BL/6 mice = assay: Chronic EAE mouse model (MOG35-55 immunization), daily clinical score and body weight; type: in vivo; set-up: key to Delay in onset of the disease / Reduction in severity of the disease / Reduction in body weight loss: +++: high level improvement; ++: moderate improvement; +: small improvement; −: no improvement; conditions: for Delay in onset of the disease / Reduction in body weight loss / Reduction in severity of the disease: average overall effects on the EAE model, i.p.
Description: The aim of this study was to verify the effectiveness of compounds in a chronic mouse animal model of EAE. EAE is a good proof-of-principle model of neurodegeneration since it encompasses degeneration or destruction of practically all the cells in the central nervous system, includes most major immunomodulatory components, and is able to maintain normal innate regenerative functions in the animal. This is a standard model (Antel J P et al., J Neurosci Res. 1997, 50: 345-353) used mainly to mimic the course evolution of Multiple Sclerosis (MS) in humans, and is commonly used for studying disease mechanisms and testing potential therapies. EAE is induced by immunization with myelin proteins, leading to development of myelin-specific T cells. These autoreactive T cells traffic into CNS parenchyma where they initiate an inflammatory cascade through recruitment of other cells such as monocytes and neutrophils. Accumulation of immune cells within CNS leads to myelin damage, axonal loss and clinical deficit in affected animals. EAE can be induced in a variety of species and strains of animals [mice, Rat, marmoset monkey, rhesus macaques] using various CNS antigens [Myelin Oligodendrocyte Glycoprotein (MOG), proteolipid protein (PLP) and myelin basic protein (MBP)]. Seven to 8 week old female C57BL/6 mice were purchased from Charles River Laboratories, and housed at MISPRO™ animal facility for one week before experimentation for adaptation to the new environment. All proper animal experimentation and ethics approvals were obtained prior to the start of any experiments. Mice were immunized subcutaneously with 100 μg of MOG35-55 (Sheldon Biotechnology Centre, McGill University) in CFA containing 5 mg/ml of desiccated (killed and dried) Mycobacterium tuberculosis H37Ra (Difco, Inc), at two sites on the back. The mice were then injected with 200 ng of pertussis toxin (List Biological Laboratories, Inc) in PBS intraperitoneally on days 0 and 2 using 25 gauge needles and scored daily using an EAE clinical scale as detailed below (Touil T et al., J Neurol Sci. 2008, 271:191-202; Antel J P et al., 1997, supra; Owens T et al., Curr Pharm Des. 2005, 1:1031-1037).
EAE was clinically assessed throughout the experiments by daily scoring using a scale from 0 to 5 as follows: partial limp tail, 0.5; full limp tail, 1; limp tail and waddling gait, 1.5; paralysis of one hind limb, 2; paralysis of one hind limb and partial paralysis of other hind limb, 2.5; paralysis of both hind limbs, 3; ascending paralysis, 3.5; paralysis of trunk, 4; moribund, 4.5; death, 5. In all the EAE models a body weight loss is always associated with the clinical signs. This body weight loss is associated with the loss of the function and the paralysis of the muscle (atrophy inducing loss of weight). For animals showing a clinical sign of 2 or more, the food and the water were presented inside the cage to facilitate eating and drinking.
At the onset of clinical signs of EAE, the mice were treated with 200 μl of Compound 51, 53, 57, 59, 101, 104, 105, 111 or 123 dissolved in 2.5% Dimethyl sulfoxide (DMSO) in PBS, while placebo groups were treated with 2.5% Dimethyl sulfoxide (DMSO) in PBS only, by intraperitoneal injection at different time of the clinical evolution.

[2] = 30-minute incubation at 37° C., approximations of the average values, read-out: Caspase enzymatic activity, IC50 (uM) Caspase 3
[3] = FIG. 2, i.p. from day 10 to 16 post immunization, versus placebo
[4] = FIG. 4, administration for 15 days from day 12 post-immunization, versus placebo

Caspase-3, sequence (P42574 29-277): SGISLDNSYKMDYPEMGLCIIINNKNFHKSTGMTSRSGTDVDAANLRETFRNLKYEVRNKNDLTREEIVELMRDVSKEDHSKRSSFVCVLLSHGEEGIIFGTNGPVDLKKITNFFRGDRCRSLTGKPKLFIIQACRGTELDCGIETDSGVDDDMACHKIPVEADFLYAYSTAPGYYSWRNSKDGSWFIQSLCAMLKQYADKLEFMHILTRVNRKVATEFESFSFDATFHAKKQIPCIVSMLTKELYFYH
Caspase-9, sequence (P55211 whole entry): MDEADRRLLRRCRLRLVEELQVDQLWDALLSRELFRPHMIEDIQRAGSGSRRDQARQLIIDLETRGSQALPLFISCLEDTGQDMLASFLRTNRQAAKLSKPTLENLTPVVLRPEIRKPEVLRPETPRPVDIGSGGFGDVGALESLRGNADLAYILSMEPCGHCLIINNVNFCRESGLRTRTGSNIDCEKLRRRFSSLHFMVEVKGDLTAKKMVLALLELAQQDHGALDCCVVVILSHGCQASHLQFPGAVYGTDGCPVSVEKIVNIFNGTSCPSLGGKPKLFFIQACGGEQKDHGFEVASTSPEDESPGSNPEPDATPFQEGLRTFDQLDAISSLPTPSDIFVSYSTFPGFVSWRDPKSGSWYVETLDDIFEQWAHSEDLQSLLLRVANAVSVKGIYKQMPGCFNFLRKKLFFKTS
Caspase-5, sequence (P51878 137-434): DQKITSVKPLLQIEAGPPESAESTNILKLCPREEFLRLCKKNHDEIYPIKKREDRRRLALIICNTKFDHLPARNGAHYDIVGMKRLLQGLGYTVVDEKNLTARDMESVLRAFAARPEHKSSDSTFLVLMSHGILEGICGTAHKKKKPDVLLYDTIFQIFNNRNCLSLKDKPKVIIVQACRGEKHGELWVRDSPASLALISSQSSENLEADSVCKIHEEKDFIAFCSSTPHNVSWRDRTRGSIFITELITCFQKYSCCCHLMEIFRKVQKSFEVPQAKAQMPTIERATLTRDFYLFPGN
Caspase-7, sequence (P55210 whole entry): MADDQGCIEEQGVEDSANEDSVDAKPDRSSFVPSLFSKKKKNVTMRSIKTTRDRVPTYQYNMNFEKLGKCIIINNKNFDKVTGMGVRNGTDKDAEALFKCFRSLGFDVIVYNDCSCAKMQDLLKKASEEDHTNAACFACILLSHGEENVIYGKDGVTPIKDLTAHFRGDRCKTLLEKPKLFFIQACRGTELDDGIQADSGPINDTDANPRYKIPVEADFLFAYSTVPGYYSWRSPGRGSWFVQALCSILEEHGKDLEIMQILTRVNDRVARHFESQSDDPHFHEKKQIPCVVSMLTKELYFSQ
Caspase-1, sequence (P29466 120-404): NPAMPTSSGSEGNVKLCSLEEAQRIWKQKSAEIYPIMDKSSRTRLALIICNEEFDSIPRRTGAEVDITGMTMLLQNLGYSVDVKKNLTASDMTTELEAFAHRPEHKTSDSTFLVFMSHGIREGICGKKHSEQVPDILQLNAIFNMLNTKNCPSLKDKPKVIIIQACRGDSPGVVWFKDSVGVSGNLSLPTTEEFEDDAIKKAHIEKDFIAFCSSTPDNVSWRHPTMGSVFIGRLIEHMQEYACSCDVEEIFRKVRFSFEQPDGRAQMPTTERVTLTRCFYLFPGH

| Structure (SMILES) | IC50 (Caspase-5) [µM] | IC50 (Caspase-3; [2]) [µM] | IC50 (Caspase-9) [µM] | IC50 (Caspase-1) [µM] | IC50 (Glo3/7) [µM] | IC50 (Caspase-7) [µM] | also measured |
| --- | --- | --- | --- | --- | --- | --- | --- |
| CC(C)(C)OC(=O)C[C@@H](/C=C/S(=O)(=O)c1ccccc1)NC(=O)OC(C)(C)C [Compound 36, Boc-Asp(O-tBu)VSphenyl] | > 3.33 | > 2 | > 3.33 | > 3.33 | > 50 | > 3.33 |  |
| CC(C)[C@H](NC(=O)[C@H](Cc1ccc2ccccc2n1)NC(=O)[C@H](CC(=O)O)NC(=O)OCc1ccccc1)C(=O)N[C@H](/C=C/S(C)(=O)=O)CC(=O)O [Compound 55, Z-Asp-Ala(2′-quinolyl)-Val-Aspmethyl vinyl sulfone] | > 10 |  | > 3.33 | > 10 | 0.1 | 1.4 | inhibitory activity for caspase-5 (Caspase-5): No significant inhibitory activity; inhibitory activity for caspase-9 (Caspase-9): No significant inhibitory activity; inhibitory activity for caspase-1 (Caspase-1): No significant inhibitory activity; effectivity in inhibiting PARP cleavage [1]: showing effectivity especially relative to DEVD-fmk |
| CC(C)[C@H](NC(=O)OCc1ccccc1)C(=O)N[C@H](/C=C/S(C)(=O)=O)CC(=O)O [Compound 61, z-Val-AspVSmethyl] | > 3.33 | > 3.33 | > 3.33 | > 3.33 | 50 | > 3.33 | activity against caspase-3 (Caspase-3): abolished completely the activity |
| CC(C)[C@H](NC(=O)[C@H](Cc1ccc2ccccc2n1)NC(=O)[C@H](CC(=O)O)NC(=O)OCc1ccccc1)C(=O)N[C@H](/C=C/S(=O)(=O)c1ccccc1)CC(=O)O [Compound 63, Z-Asp-Ala(2′-quinolyl)-Val-Aspphenyl vinyl sulfone] | > 3.33 | 0.04 | > 3.33 | > 3.33 | 0.9 | 1.8 | inhibitory activity for caspase-5 (Caspase-5): No significant inhibitory activity; selectivity of Caspase-3 over Caspase-7 based on IC50 values (Caspase-3; IC50 caspase-7 versus caspase-3): ~50 fold; inhibitory activity for caspase-9 (Caspase-9): No significant inhibitory activity; inhibitory activity for caspase-1 (Caspase-1): No significant inhibitory activity |
| CC(C)[C@H](NC(=O)[C@H](Cc1ccc2ccccc2n1)NC(=O)[C@H](CC(=O)O)NC(=O)OCc1ccccc1)C(=O)N[C@H](/C=C/S(=O)(=O)Oc1ccccc1)CC(=O)O [Compound 65, Z-Asp-Ala(2′-quinolyl)-Val-Aspphenoxy vinyl sulfone] | > 3.33 | 0.01 | 0.3 | 1.2 | 0.2 | 0.4 |  |
| CC(C)[C@H](NC(=O)[C@@H](NC(=O)[C@H](CC(=O)O)NC(=O)OCc1ccccc1)C1Cc2ccccc2C1)C(=O)N[C@H](/C=C/S(=O)(=O)C(C)C)CC(=O)O [Compound 68, Z-Asp-Indanylglycine-Val-Aspisopropyl Vinyl Sulfone] | > 3.33 | 0.2 | > 3.33 | > 3.33 | 1.1 | 1.5 |  |
| CC(C)[C@H](NC(=O)C(Cc1ccc2ccccc2n1)NC(=O)[C@H](CC(=O)O)NC(=O)OCc1ccccc1)C(=O)N[C@H](/C=C/S(=O)(=O)c1ccccc1)CC(=O)O (stereo partly drawn) [Compound 70, Z-Asp-(D,L Ala(2′-quinolyl))-Val-Aspphenyl Vinylsulfone] | > 10 | 0.3 | > 10 | > 3.33 | 20 | > 10 |  |
| CC(C)[C@H](NC(=O)[C@H](Cc1c[nH]c2ccccc12)NC(=O)[C@H](CC(=O)O)NC(=O)OCc1ccccc1)C(=O)N[C@H](/C=C/S(C)(=O)=O)CC(=O)O [Compound 88, Z-Asp-Trp-Val-Aspmethyl vinyl sulfone] | > 3.33 | 0.04 | > 3.33 | 0.7 | 0.7 | 1.1 | IC50 (Caspase-3; read-out: IC50 caspase-3): 0.03 to 0.09 µM |
| CC(C)[C@H](NC(=O)[C@H](Cc1ccc(OC(C)(C)C)cc1)NC(=O)OCc1ccccc1)C(=O)N[C@@H](C)C(=O)N[C@H](/C=C/S(=O)(=O)c1ccccc1)CC(=O)OC(C)(C)C [Compound 95, Z-Tyr(OtBu)- Val-Ala-Asp (OtBu) phenyl vinyl sulfone] |  |  |  |  |  |  | effects on the clinical course of EAE (EAE in C57BL/6 mice; FIG. 3, i.p. from day 14 to 19 post immunization, versus placebo): ameliorating effects |
| COC(=O)C[C@@H](/C=C(\Cl)S(C)(=O)=O)NC(=O)[C@@H](NC(=O)[C@@H](NC(=O)[C@H](CC(=O)OC)NC(=O)OCc1ccccc1)c1ccccc1)C(C)C [Compound 104, Z-Asp(β-methyl)-phenylglycine-Val-Asp(β-methyl)achlorovinyl Methylsulfone] |  |  |  |  |  |  | Disease onset (EAE in C57BL/6 mice; [3]): delayed; Loss of body weight (EAE in C57BL/6 mice; [3]): did not show and significant difference compared to placebo; severity of the disease (EAE in C57BL/6 mice; [3]): reduced significantly at the early stage of the disease; Delay in onset of the disease (EAE in C57BL/6 mice): ++; Reduction in body weight loss (EAE in C57BL/6 mice): −; Reduction in severity of the disease (EAE in C57BL/6 mice): + |
| COC(=O)C[C@@H](/C=C(\Cl)S(C)(=O)=O)NC(=O)[C@@H](NC(=O)[C@@H](NC(=O)[C@H](CC(=O)OC)NC(=O)OCc1ccccc1)C1Cc2ccccc2C1)C(C)C [Compound 105, Z-Asp(β-methyl)-indanylglycine-Val-Asp(β-methyl)achlorovinyl Methylsulfone] |  |  |  |  |  |  | Disease onset (EAE in C57BL/6 mice; [3]): delayed; Loss of body weight (EAE in C57BL/6 mice; [3]): less than placebo; severity of the disease (EAE in C57BL/6 mice; [3]): reduced significantly at the early stage of the disease; Delay in onset of the disease (EAE in C57BL/6 mice): ++; Reduction in body weight loss (EAE in C57BL/6 mice): ++; Reduction in severity of the disease (EAE in C57BL/6 mice): + |
| COC(=O)CC[C@H](NC(=O)[C@H](CC(=O)OC)NC(=O)OCc1ccccc1)C(=O)N[C@H](C(=O)N[C@@H](CC(=O)OC)C(=O)CF)C(C)C [zDEVD-FMK, z-D(OMe)E(OMe)VD(OMe)FMK, reference compound] |  |  |  |  |  |  | onset of the disease (EAE in C57BL/6 mice; [4]): delayed the onset; severity of the disease (EAE in C57BL/6 mice; [4]): reduced the severity of the disease |
